Source: US20030077289A1, “Use of cell-penetrating peptides to generate antitumor immunity” (priority 2001, published 2003)
Residues, ends and D or L forms follow the SMILES beside them.

Tests used:
CD4+ T cells = test: Peptide-specific CD4+ T cell activity; assay type: cell-based
mature DCs = test: Entry of fluorescein-labeled peptides into mature DCs (fluorescence microscopy); assay type: cell-based, C57BL/6 mouse
Method: 1A) Peptide sequences for cell-penetrating peptide (CPP1), TRP-2 and control peptides. B) Fluorescence and phase-contrast microscopy of DC incubated with various peptide-FITC (40×magnification). DCs incubated with PBS served as a control. 1C) DCs incubated with CPP1-TRP2-FITC and viewed by phase-contrast or fluorescence microscopy at 60×magnification. Representative examples of DC/CPP1-TRP2-FITC are shown. The penetrating fluorescent peptide was localized in both the cytoplasm as well as the cell nucleus. 1D) T cell response to DCs loaded with each peptide (solid circle for CPP1-TRP2, open circle for TRP2, and open triangle for CPP1-βgal) at different time points after peptide pulsing. GM-CSF release from T cells was determined by ELISA.
Dendritic Cell Preparation and Analysis. Mouse immature and mature DCs were derived from C57BL/6 bone marrow as previously described (Labeur et al., 1999; Specht et al., 1997). Phenotype and mixed leukocyte reaction activity of DCs were analyzed according to the protocol described (Specht et al., 1997). Briefly, immature DCs were generated in the presence of murine GM-CSF without transfer steps. The loosely adherent immature DCs were harvested on day 5 and used for experiments. Mature DCs were generated in the presence of recombinant GM-CSF and 1000 U/ml of IL-4 (Peprotech, Rocky Hill, N.J.). […]

B16 tumor = details: Schreurs et al., 2000; 9-mer versus 8-mer; cited from earlier work

SVYDFFVWL [TRP2, reference compound]
peptide-specific CD4+ T cell activity (CD4+ T cells): not detected

AAVLLPVLLAAPSVYDFFVWL [CPP1-TRP2, TRP2 peptide covalently linked to cell-penetrating peptide CPP1 (21-mer)]
intracellular localization of peptide in DCs (mature DCs; fluorescein-labeled peptide, mature DC): translocated and accumulated in the cytoplasm as well as the cell nucleus
internalization of peptide into mature DCs (mature DCs; peptide labeled at N-terminus with fluorescein, incubated with mature DC): efficiently internalized
peptide-specific CD4+ T cell activity (CD4+ T cells): not detected

CC(C)C[C@H](NC(=O)[C@H](Cc1c[nH]c2ccccc12)NC(=O)[C@@H](NC(=O)[C@H](Cc1ccccc1)NC(=O)[C@H](Cc1ccccc1)NC(=O)[C@H](CC(=O)O)NC(=O)[C@H](Cc1ccc(O)cc1)NC(=O)[C@@H](N)C(C)C)C(C)C)C(=O)O [TRP2 (VYDFFVWL 8-mer), VYDFFVWL] (H-VYDFFVWL-OH)
CTL activity in vitro after multiple immunization (B16 tumor): comparable
